Test results as given in PubChem BioAssay (NCI).
Where “and” joins values, the source holds several entries; their conditions need not be identical. Equal values may be shown once.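 96-well plates; 48 h exposure; 5 concentrations. Endpoints by linear interpolation between flanking doses. Not reached: highest tested concentration assigned. Here, GI50 denotes the concentration required for 50% inhibition of growth. TGI is the concentration that stops growth completely.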

Legend:
Assay in all cases: inhibition of tumour cell growth, NCI panel, 48 h
[1] = system: SNB-19 CNS
[2] = system: SK-MEL-2 melanoma
[3] = system: IGROV1 ovarian
[4] = system: OVCAR-8 ovarian
[5] = system: MCF7 breast
[6] = system: EKVX NSCLC
[7] = system: SNB-75 CNS
[8] = system: NCI-H226 lung
[9] = system: UACC-62 melanoma
[10] = system: COLO 205 colon

| Structure (SMILES) | GI50 [1] | TGI [1] | GI50 [2] | TGI [2] | TGI [3] | TGI [4] | GI50 [5] | TGI [5] | GI50 [6] | TGI [6] | TGI [7] | GI50 [8] | TGI [8] | GI50 [9] | TGI [9] | GI50 [10] | TGI [10] | GI50 [3] | GI50 [4] | GI50 [7] |
| --- | --- | --- | --- | --- | --- | --- | --- | --- | --- | --- | --- | --- | --- | --- | --- | --- | --- | --- | --- | --- |
| CO[C@@H]1[C@H](OC(=O)NC(=O)CCl)CC[C@]2(CO2)[C@H]1[C@@]1(C)O[C@@H]1CC=C(C)C | 6.01 µM | 45.4 µM and 69.1 µM | 23 µM | 35.5 µM and 68.6 µM | 33 µM and 43.4 µM | 79.9 µM | 10.7 µM | 44.4 µM and 180 µM | 22.4 µM | 35.8 µM and 52.4 µM | 24.7 µM and 200 µM | 23.7 µM | 50.4 µM and 50.3 µM | 6.21 µM and 4.01 µM | 26 µM and 24.1 µM | 9.44 µM and 2.54 µM | 31.5 µM and 35.7 µM | – | – | – |
| COc1ccc(/C=C/c2n[nH]c3ccc(N4CCOC4=O)cc23)cc1 | 3.12 µM | > 100 µM | 2.53 µM | 6.21 µM | > 100 µM | > 100 µM | 1.93 µM | 40.3 µM | 3.39 µM | 36.1 µM | 18 µM | 2.44 µM | 15.4 µM | 2.6 µM | 6.83 µM | 0.501 µM | 3.05 µM | 2.53 µM | 2.31 µM | 2.5 µM |
| NCCNC(=S)S | – | > 100 µM | – | > 100 µM | > 100 µM | > 100 µM | – | > 100 µM | – | > 100 µM | > 100 µM | – | > 100 µM | – | > 100 µM | – | > 100 µM | – | – | – |
| COc1cc(-n2cc(-c3ccc(Cl)cc3)[nH]c2=O)cc(OC)c1OC | 32.6 µM | > 100 µM | 72.6 µM | > 100 µM | > 100 µM | 68.9 µM | 35 µM | > 100 µM | 34.1 µM | > 100 µM | 50.5 µM | 33.2 µM | 83.3 µM | 23 µM | 64.1 µM | > 100 µM | > 100 µM | 35.5 µM | 26.5 µM | 26.2 µM |
| NS(=O)(=O)c1ccc(N2N=C3c4ccccc4CC3C2c2ccc(Cl)cc2)cc1 (configuration not stated) | 17.3 µM | > 100 µM | 8.23 µM | 28.4 µM | 19.6 µM | 33.4 µM | 25 µM | 59.5 µM | 14.1 µM | 58.9 µM | 7.94 µM | 10.9 µM | 38.7 µM | 5.97 µM | 22.7 µM | 4.99 µM | > 100 µM | 3.48 µM | 11.8 µM | 2.97 µM |
| COC1=CC(c2ccc[nH]2)=N/C1=C\c1ccc[nH]1 | 3.17 µM | 18.4 µM | 0.218 µM | 0.809 µM | 4.7 µM | 20.5 µM | 0.346 µM | 11.9 µM | 0.61 µM | 16.4 µM | 1.83 µM | 0.363 µM | 12.4 µM | 0.219 µM | 0.516 µM | 0.0897 µM | 5.7 µM | 0.172 µM | 0.232 µM | 0.188 µM |
| CSc1nc2sc3cc(Cl)ccc3n2c(=N)c1C#N | > 64.2 µM | > 100 µM | 15.5 µM | 48.5 µM | > 88.4 µM | > 100 µM | 3.31 µM | > 100 µM | 10.7 µM | > 100 µM | > 69.6 µM | 12.8 µM | > 100 µM | 17.7 µM | > 100 µM | 3.33 µM | > 100 µM | > 49.2 µM | 17.4 µM | 2.27 µM |
